Reference: ChEMBL document CHEMBL3885861, “Open TG-GATES”

Species: Rattus norvegicus
Assay: Open TG-GATES - Regimen: Daily Repeat
Format: toxicity, organism-based, Sprague-Dawley
Parameters: regimen Daily Repeat, gender Male, age 6 weeks
Conditions: in vivo, po, route gavage; for TP / gamma-GTP / ALP / ALT / AST / BUN / CRE / DBIL / GLC / IP / K / LDH / Na / PL / RALB / TBIL / TC / TG: tissue Plasma; for APTT / Bas / Eos / Fbg / Hb / Ht / Lym / MCH / MCHC / MCV / Mono / Neu / PT / Plat / RBC / Ret / WBC: tissue Blood; for KIDNEY_L / KIDNEY_R / KIDNEY_TOTAL: tissue Kidney; for LIVER: tissue Liver
[1] = 45 mg/kg, […], dose level Low, time 28 day
[2] = 150 mg/kg, 72 h, dose level Middle, time 3 day
[3] = 150 mg/kg, […], dose level Middle, time 7 day
[4] = 150 mg/kg, […], dose level Middle, time 14 day
[5] = 150 mg/kg, […], dose level Middle, time 28 day
[6] = 450 mg/kg, 72 h, dose level High, time 3 day
[7] = 450 mg/kg, […], dose level High, time 7 day
[8] = 450 mg/kg, […], dose level High, time 14 day
[9] = 450 mg/kg, […], dose level High, time 28 day

CC(CCc1ccccc1)NCC(O)c1ccc(O)c(C(N)=O)c1 (stereo not drawn) [LABETALOL]
TP [1]: 6.4 g/dL
gamma-GTP [1]: 1 IU/L
TERMINAL_BW [2]: 253.6 g
APTT [2]: 16.1 s
Bas [2]: 0.2%
Eos [2]: 0.8%
Fbg [2]: 278 mg/dL
Hb [2]: 13.8 g/dL
Ht [2]: 40.7%
Lym [2]: 75%
MCH [2]: 21.7 pg
MCHC [2]: 33.9%
MCV [2]: 64 fL
Mono [2]: 2.6%
Neu [2]: 21.2%
PT [2]: 12.9 s
Plat [2]: 117.8 x10_4/uL
RBC [2]: 636.6 x10_4/ul
Ret [2]: 7.2%
WBC [2]: 104.5 x10_2/uL
KIDNEY_L [2]: 1 g
KIDNEY_R [2]: 1 g
KIDNEY_TOTAL [2]: 2 g
LIVER [2]: 11.7 g
ALP [2]: 2122.4 IU/L
ALT [2]: 47 IU/L
AST [2]: 76.8 IU/L
BUN [2]: 16.6 mg/dL
CRE [2]: 0.2 mg/dL
DBIL [2]: 0.018 mg/dL
GLC [2]: 180 mg/dL
IP [2]: 7.8 mg/dL
K [2]: 4 meq/L
LDH [2]: 65.6 IU/L
Na [2]: 145 meq/L
PL [2]: 155.4 mg/dL
RALB [2]: 2.7 g/dL
TBIL [2]: 0.028 mg/dL
TC [2]: 84.8 mg/dL
TG [2]: 120.6 mg/dL
TP [2]: 5.9 g/dL
gamma-GTP [2]: 1 IU/L
TERMINAL_BW [3]: 288.5 g
TERMINAL_BW [4]: 339.7 g
TERMINAL_BW [5]: 424.9 g
APTT [3]: 17.3 s
Bas [3]: 0%
Eos [3]: 1%
Fbg [3]: 310.4 mg/dL
Hb [3]: 14.8 g/dL
Ht [3]: 42.8%
Lym [3]: 73.4%
MCH [3]: 21.3 pg
MCHC [3]: 34.5%
MCV [3]: 61.9 fL
Mono [3]: 2.6%
Neu [3]: 22.2%
PT [3]: 12.9 s
Plat [3]: 110.9 x10_4/uL
RBC [3]: 693.2 x10_4/ul
Ret [3]: 5.2%
WBC [3]: 92.4 x10_2/uL
APTT [4]: 17.1 s
Bas [4]: 0.2%
Eos [4]: 1.2%
Fbg [4]: 300.4 mg/dL
Hb [4]: 14.9 g/dL
Ht [4]: 42.9%
Lym [4]: 71.2%
MCH [4]: 20.6 pg
MCHC [4]: 34.6%
MCV [4]: 59.5 fL
Mono [4]: 2.2%
Neu [4]: 24.8%
PT [4]: 13.1 s
RBC [4]: 721.4 x10_4/ul
Ret [4]: 4.3%
WBC [4]: 99.2 x10_2/uL
APTT [5]: 19 s
Bas [5]: 0.4%
Eos [5]: 1.4%
Fbg [5]: 286.4 mg/dL
Hb [5]: 15.6 g/dL
Ht [5]: 44.3%
Lym [5]: 71.8%
MCH [5]: 19.8 pg
MCHC [5]: 35.2%
MCV [5]: 56.1 fL
Mono [5]: 3%
Neu [5]: 23.2%
PT [5]: 13.5 s
Plat [5]: 96.8 x10_4/uL
RBC [5]: 789.8 x10_4/ul
Ret [5]: 2.1%
WBC [5]: 110.3 x10_2/uL
KIDNEY_L [3]: 1.2 g
KIDNEY_R [3]: 1.2 g
KIDNEY_TOTAL [3]: 2.4 g
KIDNEY_L [4]: 1.2 g
KIDNEY_R [4]: 1.2 g
KIDNEY_TOTAL [4]: 2.4 g
KIDNEY_L [5]: 1.4 g
KIDNEY_R [5]: 1.4 g
KIDNEY_TOTAL [5]: 2.8 g
LIVER [3]: 12.6 g
LIVER [4]: 13.3 g
LIVER [5]: 15.6 g
ALP [3]: 1724.6 IU/L
ALT [3]: 51 IU/L
AST [3]: 76 IU/L
BUN [3]: 14.8 mg/dL
CRE [3]: 0.2 mg/dL
DBIL [3]: 0.02 mg/dL
GLC [3]: 183.2 mg/dL
K [3]: 3.8 meq/L
LDH [3]: 68.4 IU/L
Na [3]: 142.8 meq/L
PL [3]: 150.8 mg/dL
RALB [3]: 2.8 g/dL
TBIL [3]: 0.034 mg/dL
TC [3]: 78 mg/dL
TG [3]: 141.2 mg/dL
TP [3]: 6.1 g/dL
gamma-GTP [3]: 1 IU/L
ALP [4]: 1359.8 IU/L
ALT [4]: 50.6 IU/L
AST [4]: 74.4 IU/L
BUN [4]: 17.2 mg/dL
CRE [4]: 0.2 mg/dL
DBIL [4]: 0.012 mg/dL
GLC [4]: 174.6 mg/dL
IP [4]: 8.6 mg/dL
K [4]: 3.9 meq/L
LDH [4]: 58.6 IU/L
Na [4]: 145.4 meq/L
PL [4]: 148.6 mg/dL
RALB [4]: 2.8 g/dL
TBIL [4]: 0.026 mg/dL
TC [4]: 81.6 mg/dL
TG [4]: 88.8 mg/dL
TP [4]: 6.3 g/dL
gamma-GTP [4]: 1.4 IU/L
ALP [5]: 865.6 IU/L
ALT [5]: 60.2 IU/L
AST [5]: 78.2 IU/L
BUN [5]: 18.4 mg/dL
CRE [5]: 0.3 mg/dL
DBIL [5]: 0.026 mg/dL
GLC [5]: 185.6 mg/dL
IP [5]: 7.3 mg/dL
K [5]: 3.6 meq/L
LDH [5]: 69.4 IU/L
Na [5]: 143.4 meq/L
PL [5]: 132 mg/dL
RALB [5]: 2.8 g/dL
TBIL [5]: 0.038 mg/dL
TC [5]: 74 mg/dL
TG [5]: 113 mg/dL
TP [5]: 6.2 g/dL
gamma-GTP [5]: 1.2 IU/L
TERMINAL_BW [6]: 240.1 g
APTT [6]: 17 s
Bas [6]: 0%
Eos [6]: 0.8%
Fbg [6]: 275.8 mg/dL
Hb [6]: 13.6 g/dL
Ht [6]: 39.8%
Lym [6]: 79%
MCH [6]: 21.2 pg
MCHC [6]: 34.2%
MCV [6]: 61.9 fL
Mono [6]: 2.4%
Neu [6]: 17.2%
PT [6]: 12.9 s
Plat [6]: 114.3 x10_4/uL
RBC [6]: 644 x10_4/ul
Ret [6]: 6.4%
WBC [6]: 89.1 x10_2/uL
KIDNEY_L [6]: 1 g
KIDNEY_R [6]: 1 g
KIDNEY_TOTAL [6]: 2 g
LIVER [6]: 9.9 g
ALP [6]: 1714 IU/L
ALT [6]: 45.4 IU/L
AST [6]: 61.8 IU/L
BUN [6]: 16.4 mg/dL
CRE [6]: 0.2 mg/dL
DBIL [6]: 0.014 mg/dL
GLC [6]: 162.8 mg/dL
IP [6]: 7.1 mg/dL
K [6]: 4.4 meq/L
LDH [6]: 45.2 IU/L
Na [6]: 142.6 meq/L
PL [6]: 142.8 mg/dL
RALB [6]: 2.6 g/dL
TBIL [6]: 0.038 mg/dL
TC [6]: 88 mg/dL
TG [6]: 43.6 mg/dL
TP [6]: 5.6 g/dL
gamma-GTP [6]: 1 IU/L
TERMINAL_BW [7]: 269.7 g
TERMINAL_BW [8]: 293.4 g
TERMINAL_BW [9]: 333.5 g
APTT [7]: 17.5 s
Bas [7]: 0%
Eos [7]: 0.8%
Fbg [7]: 266.4 mg/dL
Hb [7]: 14.1 g/dL
Ht [7]: 40.5%
Lym [7]: 77.8%
MCH [7]: 21.1 pg
MCHC [7]: 34.7%
MCV [7]: 60.7 fL
Mono [7]: 3.4%
Neu [7]: 17.4%
PT [7]: 13.5 s
Plat [7]: 97.4 x10_4/uL
RBC [7]: 667.6 x10_4/ul
Ret [7]: 4%
WBC [7]: 80.1 x10_2/uL
APTT [8]: 18.2 s
Bas [8]: 0%
Eos [8]: 1%
Fbg [8]: 278 mg/dL
Hb [8]: 15.3 g/dL
Ht [8]: 44.1%
Lym [8]: 78.3%
MCH [8]: 20.6 pg
MCHC [8]: 34.8%
MCV [8]: 59.1 fL
Mono [8]: 2%
Neu [8]: 17.7%
PT [8]: 13.6 s
Plat [8]: 94.8 x10_4/uL
RBC [8]: 745 x10_4/ul
Ret [8]: 2.9%
WBC [8]: 85.7 x10_2/uL
APTT [9]: 19.7 s
Bas [9]: 0%
Eos [9]: 1%
Fbg [9]: 228.5 mg/dL
Hb [9]: 15.9 g/dL
Ht [9]: 44.5%
Lym [9]: 78.5%
MCH [9]: 19.5 pg
MCHC [9]: 35.6%
MCV [9]: 54.7 fL
Mono [9]: 2%
Neu [9]: 18%
PT [9]: 14.7 s
Plat [9]: 79 x10_4/uL
RBC [9]: 813.5 x10_4/ul
Ret [9]: 1%
WBC [9]: 104.3 x10_2/uL
KIDNEY_L [7]: 1.2 g
KIDNEY_R [7]: 1.1 g
KIDNEY_TOTAL [7]: 2.3 g
KIDNEY_L [8]: 1.1 g
KIDNEY_R [8]: 1.2 g
KIDNEY_TOTAL [8]: 2.3 g
KIDNEY_L [9]: 1.4 g
KIDNEY_R [9]: 1.3 g
KIDNEY_TOTAL [9]: 2.6 g
LIVER [7]: 11 g
LIVER [8]: 10.8 g
LIVER [9]: 11.6 g
ALP [7]: 1741.8 IU/L
ALT [7]: 55.8 IU/L
AST [7]: 65.8 IU/L
BUN [7]: 16.2 mg/dL
CRE [7]: 0.2 mg/dL
DBIL [7]: 0.008 mg/dL
GLC [7]: 162.2 mg/dL
K [7]: 4.3 meq/L
LDH [7]: 50 IU/L
Na [7]: 142.4 meq/L
PL [7]: 149.8 mg/dL
RALB [7]: 2.6 g/dL
TBIL [7]: 0.03 mg/dL
TC [7]: 91.2 mg/dL
TG [7]: 37.2 mg/dL
TP [7]: 5.7 g/dL
gamma-GTP [7]: 1.2 IU/L
ALP [8]: 1433.3 IU/L
ALT [8]: 45.3 IU/L
AST [8]: 61.3 IU/L
BUN [8]: 18.7 mg/dL
CRE [8]: 0.3 mg/dL
DBIL [8]: 0.01 mg/dL
GLC [8]: 176.7 mg/dL
K [8]: 3.8 meq/L
LDH [8]: 47.7 IU/L
Na [8]: 145.3 meq/L
PL [8]: 138 mg/dL
RALB [8]: 2.7 g/dL
TBIL [8]: 0.0267 mg/dL
TC [8]: 79.3 mg/dL
TG [8]: 38.3 mg/dL
TP [8]: 6 g/dL
gamma-GTP [8]: 1.3 IU/L
ALP [9]: 1187.5 IU/L
ALT [9]: 54 IU/L
AST [9]: 70 IU/L
BUN [9]: 25 mg/dL
CRE [9]: 0.3 mg/dL
DBIL [9]: 0.02 mg/dL
GLC [9]: 159.5 mg/dL
IP [9]: 7.8 mg/dL
K [9]: 4.2 meq/L
LDH [9]: 38.5 IU/L
Na [9]: 141 meq/L
PL [9]: 125.5 mg/dL
RALB [9]: 2.7 g/dL
TBIL [9]: 0.04 mg/dL
TC [9]: 62 mg/dL
TG [9]: 61.5 mg/dL
TP [9]: 6 g/dL
gamma-GTP [9]: 2 IU/L
